Measurements: patent EP1935986B1, “Luminogenic and fluorogenic compounds and methods to detect molecules or conditions” (priority 2005, dated 2006)

Columns and labels:
Format in all cases: biochemical
[1] = biological target: T1, human recombinant monoamine oxidase B (MAO B) (Homo sapiens, UniProt P27338); assay: One-step fluorogenic MAO assay with MAO-F3
T1 construct: purchased Sigma Chemical Company M-7441; host or cells: baculovirus infected insect cells (microsomes)
T1 sequence (P27338 1-520): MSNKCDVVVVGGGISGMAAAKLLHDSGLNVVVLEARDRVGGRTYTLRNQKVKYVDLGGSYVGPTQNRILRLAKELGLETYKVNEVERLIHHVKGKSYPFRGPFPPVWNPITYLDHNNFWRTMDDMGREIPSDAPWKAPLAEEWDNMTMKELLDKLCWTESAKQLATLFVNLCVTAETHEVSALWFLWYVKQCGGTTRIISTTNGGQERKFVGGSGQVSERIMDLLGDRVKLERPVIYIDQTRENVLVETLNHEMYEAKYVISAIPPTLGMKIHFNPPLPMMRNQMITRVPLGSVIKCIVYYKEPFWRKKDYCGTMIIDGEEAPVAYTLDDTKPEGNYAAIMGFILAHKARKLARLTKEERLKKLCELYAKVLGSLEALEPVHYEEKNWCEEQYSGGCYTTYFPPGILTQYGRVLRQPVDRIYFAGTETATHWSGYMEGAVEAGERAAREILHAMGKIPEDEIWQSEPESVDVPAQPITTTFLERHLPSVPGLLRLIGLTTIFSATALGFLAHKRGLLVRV
Procedure: (§1) The fluorescent signal was then measured (excitation/emission = 355/460 nm) on a Fluoroskan Ascent plate fluorometer.
(§2) This 90 µl contained 35 µl 200 mM Tricine pH 8.3, 35 µl 200 mM Tricine pH 8.7 (or water), 10 µl 200 mM MgSO4, and 10 µl of each substrate dilution.

[2] = biological target: T2, human recombinant monoamine oxidase A (MAO A) (Homo sapiens, UniProt P21397); assay: One-step fluorogenic MAO assay with MAO-F3; set-up: purchased Sigma Chemical Company M-7316; host or cells: baculovirus infected insect cells (microsomes)
T2 sequence (P21397 1-527): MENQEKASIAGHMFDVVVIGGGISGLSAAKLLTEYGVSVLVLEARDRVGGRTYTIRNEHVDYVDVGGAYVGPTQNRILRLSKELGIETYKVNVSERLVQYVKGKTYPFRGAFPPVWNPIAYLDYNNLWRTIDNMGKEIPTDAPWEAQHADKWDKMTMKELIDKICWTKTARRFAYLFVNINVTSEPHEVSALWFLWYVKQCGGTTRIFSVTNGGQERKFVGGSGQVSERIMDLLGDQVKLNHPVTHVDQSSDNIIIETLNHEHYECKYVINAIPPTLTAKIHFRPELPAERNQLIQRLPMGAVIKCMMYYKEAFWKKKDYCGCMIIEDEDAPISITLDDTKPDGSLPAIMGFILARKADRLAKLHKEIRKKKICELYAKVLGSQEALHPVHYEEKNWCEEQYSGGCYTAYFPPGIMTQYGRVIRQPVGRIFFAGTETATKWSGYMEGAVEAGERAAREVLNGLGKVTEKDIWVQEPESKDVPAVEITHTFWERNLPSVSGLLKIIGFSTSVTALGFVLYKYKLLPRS
Procedure: as §1, §2

[3] = One-step fluorogenic MAO assay with MAO-F3, control wells with H2O instead of MAO (fluorescence of the derivative)
Procedure: as §1, §2

[4] = fit of Table 31, fluorescence 355/460 nm

Structure (SMILES): CNCCCOc1ccc2c(C)cc(=O)oc2c1 [MAO-F3, 7-(4-methyl-3-N-methylaminopropoxy)coumarin]
- relative fluorescent signal, MAO B ([1]; [MAO-F3] 0.21 µM): 202
- relative fluorescent signal, net B ([1]; [MAO-F3] 0.21 µM): 154
- relative fluorescent signal, MAO B ([1]; [MAO-F3] 0.84 µM): 689
- relative fluorescent signal, net B ([1]; [MAO-F3] 0.84 µM): 632
- relative fluorescent signal, MAO B ([1]; [MAO-F3] 3.37 µM): 2198
- relative fluorescent signal, net B ([1]; [MAO-F3] 3.37 µM): 2080
- relative fluorescent signal, MAO B ([1]; [MAO-F3] 6.75 µM): 3683
- relative fluorescent signal, net B ([1]; [MAO-F3] 6.75 µM): 3486
- relative fluorescent signal, MAO B ([1]; [MAO-F3] 13.50 µM): 5239
- relative fluorescent signal, net B ([1]; [MAO-F3] 13.50 µM): 4891
- relative fluorescent signal, MAO B ([1]; [MAO-F3] 26.99 µM): 7468
- relative fluorescent signal, net B ([1]; [MAO-F3] 26.99 µM): 6835
- relative fluorescent signal, MAO B ([1]; [MAO-F3] 53.98 µM): 9885
- relative fluorescent signal, net B ([1]; [MAO-F3] 53.98 µM): 8675
- relative fluorescent signal, MAO B ([1]; [MAO-F3] 215.94 µM): 14149
- relative fluorescent signal, net B ([1]; [MAO-F3] 215.94 µM): 10774
- relative fluorescent signal, MAO B ([1]; [MAO-F3] 431.88 µM): 16590
- relative fluorescent signal, net B ([1]; [MAO-F3] 431.88 µM): 11493
- relative fluorescent signal, MAO B ([1]; [MAO-F3] 863.75 µM): 17322
- relative fluorescent signal, net B ([1]; [MAO-F3] 863.75 µM): 10561
- signal-to-background ratios at the Km values ([1]; fit of Table 31): about 13
- Km [1, 4]: 16 ± 1 µM
- relative fluorescent signal, MAO A ([2]; [MAO-F3] 0.21 µM): 240
- relative fluorescent signal, net A ([2]; [MAO-F3] 0.21 µM): 192
- relative fluorescent signal, MAO A ([2]; [MAO-F3] 0.84 µM): 815
- relative fluorescent signal, net A ([2]; [MAO-F3] 0.84 µM): 758
- relative fluorescent signal, MAO A ([2]; [MAO-F3] 3.37 µM): 2604
- relative fluorescent signal, net A ([2]; [MAO-F3] 3.37 µM): 2486
- relative fluorescent signal, MAO A ([2]; [MAO-F3] 6.75 µM): 4129
- relative fluorescent signal, net A ([2]; [MAO-F3] 6.75 µM): 3932
- relative fluorescent signal, MAO A ([2]; [MAO-F3] 13.50 µM): 6078
- relative fluorescent signal, net A ([2]; [MAO-F3] 13.50 µM): 5730
- relative fluorescent signal, MAO A ([2]; [MAO-F3] 26.99 µM): 8461
- relative fluorescent signal, net A ([2]; [MAO-F3] 26.99 µM): 7828
- relative fluorescent signal, MAO A ([2]; [MAO-F3] 53.98 µM): 11555
- relative fluorescent signal, net A ([2]; [MAO-F3] 53.98 µM): 10345
- relative fluorescent signal, MAO A ([2]; [MAO-F3] 215.94 µM): 16721
- relative fluorescent signal, net A ([2]; [MAO-F3] 215.94 µM): 13346
- relative fluorescent signal, MAO A ([2]; [MAO-F3] 431.88 µM): 19530
- relative fluorescent signal, net A ([2]; [MAO-F3] 431.88 µM): 14433
- relative fluorescent signal, MAO A ([2]; [MAO-F3] 863.75 µM): 21154
- relative fluorescent signal, net A ([2]; [MAO-F3] 863.75 µM): 14393
- signal-to-background ratios at the Km values ([2]; fit of Table 31): about 15
- Km [2, 4]: 21 ± 1 µM
- relative fluorescent signal, no MAO ([3]; [MAO-F3] 0.21 µM): 48
- relative fluorescent signal, no MAO ([3]; [MAO-F3] 0.84 µM): 57
- relative fluorescent signal, no MAO ([3]; [MAO-F3] 3.37 µM): 118
- relative fluorescent signal, no MAO ([3]; [MAO-F3] 6.75 µM): 197
- relative fluorescent signal, no MAO ([3]; [MAO-F3] 13.50 µM): 348
- relative fluorescent signal, no MAO ([3]; [MAO-F3] 26.99 µM): 633
- relative fluorescent signal, no MAO ([3]; [MAO-F3] 53.98 µM): 1210
- relative fluorescent signal, no MAO ([3]; [MAO-F3] 215.94 µM): 3375
- relative fluorescent signal, no MAO ([3]; [MAO-F3] 431.88 µM): 5097
- relative fluorescent signal, no MAO ([3]; [MAO-F3] 863.75 µM): 6761
